From patent US8669249B2, “Poly (ADP-ribose) polymerase (PARP) inhibitors” (Takeda Pharmaceutical Company Limited, priority 2009, dated 2014)

Target: T1, catalytic domain of Human PARP (Homo sapiens, UniProt P09874)
T1 construct: The catalytic domain of Human PARP was cloned and prepared; made in house
Experiment: Biacore surface plasmon resonance affinity assay
Type: binding
Settings: pKD=-log10 KD, KD in mol/L; Biacore T100, 25° C.; read-out: pKD (converted)
Procedure: Dissociation Constant (KD) from Surface Plasmon Resonance
The catalytic domain of Human PARP was cloned and prepared as described in Kinoshita, et al. FEBS Letters (2006), 556:43-46. Purified enzyme was stored at −80° C. in 25 mM Tris(hydroxymethyl)aminomethane (‘Tris’) pH 7.4, 150 mM NaCl, 2 mM dithiothreitol (DTT) at a concentration of 6 mg/mL.
Biacore affinity assays for test compounds were conducted on a Biacore T100 (GE Healthcare) as follows. A Series S Sensor Chip CM5 (part number BR-1006-68, GE Healthcare) was activated for amide coupling with an Amine Coupling Kit (part number BR-1000-50, GE Healthcare) as described by the manufacturer. The mobile phase buffer consisted of Biacore buffer HBS-P (part number BR-1003-68, GE Healthcare) supplemented with 1% v/v dimethylsulfoxide (DMSO), 0.5 mM Tris(2-carboxyethyl)phosphine hydrochloride (TCEP), and 5 mM MgCl2. Enzyme samples (2 μL/6 mg/mL) stored at −80° C. were diluted to 0.080 mg/mL with 10 mM 4-morpholineethanesulfonic acid (MES) pH 6.5 and then mounted on the activated Biacore CM5 chip at a flow rate of 10 μL/min for 240 seconds. […] Test compounds were diluted 9 times 2-fold serially in mobile phase buffer (listed above) at 1% v/v DMSO final to generate a concentration gradient bracketing their anticipated KDs. Biacore mounted PARP was given a 1 minute exposure (association phase) to various concentrations of test compounds to observe a steady state equilibrium or an on-rate. The exposure was followed with a dissociation phase of 5 minutes. The association and dissociation phases were at a flow rate of 50 μL/min and a temperature of 25° C.
Parameters Rmax (response at saturation) and KD (binding constant) were calculated through a nonlinear least squares fitting of the equation to the data by use of the Biacore T100 analysis software.
Parameter optimization was through a nonlinear least squares analysis of the association phase Response=Rmax*(1−exp(−(kon[cmpd]+koff)*t)) and dissociation phase Response=[…] by use of the Biacore T100 analysis software. The binding constant KD was calculated from the definition KD=koff/kon

T1 sequence (P09874 788-1014 limits assumed): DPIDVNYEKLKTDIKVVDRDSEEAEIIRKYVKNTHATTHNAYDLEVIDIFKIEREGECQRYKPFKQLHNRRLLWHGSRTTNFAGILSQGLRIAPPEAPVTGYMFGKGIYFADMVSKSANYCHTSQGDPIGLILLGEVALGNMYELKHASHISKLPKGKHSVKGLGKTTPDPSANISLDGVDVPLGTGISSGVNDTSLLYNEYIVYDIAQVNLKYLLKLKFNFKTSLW

Row | SMILES | Kd [µM]
1 | CC1Oc2ccc(CN3CCc4ccccc4C3)cc2NC1=O (stereo not shown) [Compound 76, 6-((3,4-Dihydroisoquinolin-2(1H)-yl)methyl)-2-methyl-2H-benzo[b][1,4]oxazin-3(4H)-one] | 0.126 to 1
2 | COC(=O)CN1CCN(Cc2ccc3c(c2)NC(=O)C(C)O3)CC1=O (stereo not shown) [Compound 78, Methyl 2-(4-((2-methyl-3-oxo-3,4-dihydro-2H-benzo[b][1,4]oxazin-6-yl)methyl)-2-oxopiperazin-1-yl)acetate] | 1.26 to 10
3 | CC1Oc2ccc(CN3CCN(C)C(=O)C3)cc2NC1=O (stereo not shown) [Compound 79, 2-Methyl-6-((4-methyl-3-oxopiperazin-1-yl)methyl)-2H-benzo[b][1,4]oxazin-3(4H)-one] | > 10
4 | CC1Oc2ccc(CN3CCCc4ccccc43)cc2NC1=O (stereo not shown) [Compound 82, 6-((3,4-Dihydroquinolin-1(2H)-yl)methyl)-2-methyl-2H-benzo[b][1,4]oxazin-3(4H)-one] | > 10
5 | Cc1ccc2c(c1)CCCN2Cc1ccc2c(c1)NC(=O)C(C)O2 (stereo not shown) [Compound 83, 2-Methyl-6-((6-methyl-3,4-dihydroquinolin-1(2H)-yl)methyl)-2H-benzo[b][1,4]oxazin-3(4H)-one] | > 10
6 | CC1Oc2ccc(CN3CCCc4cc(O)ccc43)cc2NC1=O (stereo not shown) [Compound 84, 6-((6-Hydroxy-3,4-dihydroquinolin-1(2H)-yl)methyl)-2-methyl-2H-benzo[b][1,4]oxazin-3(4H)-one] | > 10
7 | CC1Oc2ccc(CN(C)CCc3ccccc3)cc2NC1=O (stereo not shown) [Compound 85, 2-Methyl-6-((methyl(phenethyl)amino)methyl)-2H-benzo[b][1,4]oxazin-3(4H)-one] | 1.26 to 10
8 | CC1Oc2ccc(CN3CCN(CCO)CC3)cc2NC1=O (stereo not shown) [Compound 86, 6-((4-(2-Hydroxyethyl)piperazin-1-yl)methyl)-2-methyl-2H-benzo[b][1,4]oxazin-3(4H)-one] | 12.6 to 79.4
9 | CC1Oc2ccc(CN3CCC(CCO)CC3)cc2NC1=O (stereo not shown) [Compound 87, 6-((4-(2-Hydroxyethyl)piperidin-1-yl)methyl)-2-methyl-2H-benzo[b][1,4]oxazin-3(4H)-one] | 1.26 to 10
10 | CCOC(=O)CN(C)Cc1ccc2c(c1)NC(=O)C(C)O2 (stereo not shown) [Compound 88, Ethyl 2-(methyl((2-methyl-3-oxo-3,4-dihydro-2H-benzo[b][1,4]oxazin-6-yl)methyl)amino)acetate] | 12.6 to 79.4
11 | CC1Oc2cc(CN(C)CCc3ccccc3)ccc2NC1=O (stereo not shown) [Compound 91, 2-Methyl-7-((methyl(phenethyl)amino)methyl)-2H-benzo[b][1,4]oxazin-3(4H)-one] | 1.26 to 10
12 | CC1Oc2cc(CN(C)Cc3ccccc3)ccc2NC1=O (stereo not shown) [Compound 92, 7-((Benzyl(methyl)amino)methyl)-2-methyl-2H-benzo[b][1,4]oxazin-3(4H)-one] | 12.6 to 79.4
13 | CC1Oc2cc(CN3CC[C@H](c4ccccc4)C3)ccc2NC1=O (stereo partly drawn) [Compound 93, 2-Methyl-7-(((R)-3-phenylpyrrolidin-1-yl)methyl)-2H-benzo[b][1,4]oxazin-3(4H)-one] | 1.26 to 10
14 | CC1Oc2cc(CNc3ncc(-c4ccccc4)n3C)ccc2NC1=O (stereo not shown) [Compound 94, 2-Methyl-7-((1-methyl-5-phenyl-1H-imidazol-2-ylamino)methyl)-2H-benzo[b][1,4]oxazin-3(4H)-one] | 1.26 to 10
15 | CC1Oc2cc(CN3CCCC(c4ccccc4)C3)ccc2NC1=O (stereo not shown) [Compound 95, 2-Methyl-7-((3-phenylpiperidin-1-yl)methyl)-2H-benzo[b][1,4]oxazin-3(4H)-one] | 1.26 to 10
16 | O=C1Nc2cc(CN3CCC(c4ccccc4)CC3)ccc2OC1F (stereo not shown) [Compound 96, 2-Fluoro-6-((4-phenylpiperidin-1-yl)methyl)-2H-benzo[b][1,4]oxazin-3(4H)-one] | 0.126 to 1
17 | O=C1Nc2cc(CN3CCN(c4nc5ccccc5[nH]4)CC3)ccc2OC1F (stereo not shown) [Compound 99, 6-((4-(1H-Benzo[d]imidazol-2-yl)piperazin-1-yl)methyl)-2-fluoro-2H-benzo[b][1,4]oxazin-3(4H)-one] | 0.126 to 1
18 | O=C1Nc2cc(CN3CC=C(c4ccccc4)CC3)ccc2OC1F (stereo not shown) [Compound 100, 2-Fluoro-6-((4-phenyl-5,6-dihydropyridin-1(2H)-yl)methyl)-2H-benzo[b][1,4]oxazin-3(4H)-one] | 0.0126 to 0.1
19 | CCOC(=O)CN1CCN(Cc2ccc3c(c2)NC(=O)C(C)O3)CC1 (stereo not shown) [Compound 102, Ethyl 2-(4-((2-methyl-3-oxo-3,4-dihydro-2H-benzo[b][1,4]oxazin-6-yl)methyl)piperazin-1-yl)acetate] | 1.26 to 10
20 | O=C1COc2ccc(C(=O)O)cc2N1 [Compound 104, 3-Oxo-3,4-dihydro-2H-benzo[b][1,4]oxazine-6-carboxylic acid] | ≥ 100
21 | O=C1COc2ccc(C(=O)N3CCC(c4ccccc4)CC3)cc2N1 [Compound 105, 6-(4-phenylpiperidine-1-carbonyl)-2H-benzo[b][1,4]oxazin-3(4H)-one] | ≥ 100
22 | CN(C)C1CCN(C(=O)c2ccc3c(c2)NC(=O)CO3)CC1 [Compound 106, 6-(4-(Dimethylamino)piperidine-1-carbonyl)-2H-benzo[b][1,4]oxazin-3(4H)-one] | ≥ 100
23 | O=C1COc2ccc(C(=O)NCc3ccccc3)cc2N1 [Compound 107, N-Benzyl-3-oxo-3,4-dihydro-2H-benzo[b][1,4]oxazine-6-carboxamide] | ≥ 100
24 | O=C1COc2ccc(C(=O)NCC3CCCCC3)cc2N1 [Compound 108, N-(Cyclohexylmethyl)-3-oxo-3,4-dihydro-2H-benzo[b][1,4]oxazine-6-carboxamide] | ≥ 100
25 | O=C1COc2ccc(C(=O)N3CCOCC3)cc2N1 [Compound 109, 6-(Morpholine-4-carbonyl)-2H-benzo[b][1,4]oxazin-3(4H)-one] | 1.26 to 10
26 | O=C1COc2ccc(C(=O)Nc3ccccc3)cc2N1 [Compound 110, 3-Oxo-N-phenyl-3,4-dihydro-2H-benzo[b][1,4]oxazine-6-carboxamide] | ≥ 100
27 | O=C1COc2ccc(C(=O)NC3CCCCC3)cc2N1 [Compound 111, N-Cyclohexyl-3-oxo-3,4-dihydro-2H-benzo[b][1,4]oxazine-6-carboxamide] | ≥ 100

Second part, the molecule after the results:

Row | Kd [µM] | SMILES
28 | ≥ 100 | O=C1COc2ccc(C(=O)CN3CCOCC3)cc2N1 [Compound 112, 6-(2-morpholinoacetyl)-2H-benzo[b][1,4]oxazin-3(4H)-one]
29 | ≥ 100 | CN(C)C1CCN(CC(=O)c2ccc3c(c2)NC(=O)CO3)CC1 [Compound 113, 6-(2-(4-(Dimethylamino)piperidin-1-yl)acetyl)-2H-benzo[b][1,4]oxazin-3(4H)-one]
30 | 12.6 to 79.4 | O=C1COc2ccc(C(=O)CN3CCC(c4ccccc4)CC3)cc2N1 [Compound 114, 6-(2-(4-Phenylpiperidin-1-yl)acetyl)-2H-benzo[b][1,4]oxazin-3(4H)-one]
31 | ≥ 100 | O=C1COc2ccc(S(=O)(=O)N3CCCCC3)cc2N1 [Compound 115, 6-(piperidin-1-ylsulfonyl)-2H-benzo[b][1,4]oxazin-3(4H)-one]
32 | 12.6 to 79.4 | O=C1COc2ccc(S(=O)(=O)N3CCOCC3)cc2N1 [Compound 116, 6-(Morpholinosulfonyl)-2H-benzo[b][1,4]oxazin-3(4H)-one]
33 | 1.26 to 10 | O=C1COc2ccc(S(=O)(=O)N3CCCC3)cc2N1 [Compound 117, 6-(Pyrrolidin-1-ylsulfonyl)-2H-benzo[b][1,4]oxazin-3(4H)-one]
34 | 1.26 to 10 | CC1Oc2ccc(S(=O)(=O)N3CCOCC3)cc2NC1=O (stereo not shown) [Compound 118, 2-Methyl-6-(morpholinosulfonyl)-2H-benzo[b][1,4]oxazin-3(4H)-one]
35 | 12.6 to 79.4 | CC1Oc2ccc(S(=O)(=O)N3CCCCC3)cc2NC1=O (stereo not shown) [Compound 119, 2-Methyl-6-(piperidin-1-ylsulfonyl)-2H-benzo[b][1,4]oxazin-3(4H)-one]
36 | ≥ 100 | CC1Oc2ccc(S(=O)(=O)N3CCCC3)cc2NC1=O (stereo not shown) [Compound 120, 2-Methyl-6-(pyrrolidin-1-ylsulfonyl)-2H-benzo[b][1,4]oxazin-3(4H)-one]
37 | > 1 | CC1Oc2ccc(S(=O)(=O)N3CCC(c4ccccc4)CC3)cc2NC1=O (stereo not shown) [Compound 121, 2-Methyl-6-(4-phenylpiperidin-1-ylsulfonyl)-2H-benzo[b][1,4]oxazin-3(4H)-one]
38 | ≥ 100 | CCc1ccc2c(c1)NC(=O)CO2 [Compound 122, 6-Ethyl-2H-benzo[b][1,4]oxazin-3(4H)-one]
39 | 12.6 to 79.4 | O=C1COc2ccc(CCN3CCC(c4ccccc4)CC3)cc2N1 [Compound 125, 6-(2-(4-Phenylpiperidin-1-yl)ethyl)-2H-benzo[b][1,4]oxazin-3(4H)-one]
40 | 1.26 to 10 | O=C1COc2ccc(CCN3CC=C(c4ccc(F)cc4)CC3)cc2N1 [Compound 126, 6-(2-(4-(4-Fluorophenyl)-5,6-dihydropyridin-1(2H)-yl)ethyl)-2H-benzo[b][1,4]oxazin-3(4H)-one]
